Patent publication US20230167068A1, “BENZOPYRAZOLE COMPOUND” (MEDSHINE DISCOVERY INC., priority 2019, published 2023)
Read-outs that look alike come from different tables or passages of the source.

Columns and labels:
[1] = test system: human peripheral blood mononuclear cells TNF-α; assay: Repression of TNF-α in human peripheral blood mononuclear cells (LPS, ELISA); type: cell-based; details: PBMC, 3-fold diluted; for IC50: read-out: hPBMC IC50; for Emax: maximum effect value
Experimental: Experimental purpose: To express the anti-inflammatory activity of the test compound at the cellular level according to the level of TNF-α in human peripheral blood mononuclear cells (hPBMC).
• [0488] 1) The frozen cells were quickly thawed by continuous stirring in a 37° C. water bath. • [0489] 2) 25 mL of fresh pre-heated thawed culture medium was added to a 50 mL centrifuge tube. Then the cells were added gently, drop by drop. • [0490] 3) Cells were centrifuged at 2000 rpm for 10 min (ascending speed: 9, descending speed: 1). • [0491] 4) The supernatant was discarded and the cell particles were resuspended in 25 mL of freshly pre-heated RPMI 1640 culture medium.
• [0493] 5) After thawing and resuscitating the suspended cells, the number of cells was counted and the total number of cells required for the experiment was calculated. • [0494] 6) The cell suspension was diluted with an appropriate volume of cell culture medium. • [0495] 7) The cell suspension was poured into a sterile disposable container. • [0496] 8) 100,000 cells/(100 µL) of cell suspension was transferred to each well of a 96-well plate. • [0497] 9) The cell plates were placed in humidified air, 5% CO2 incubator, 37° C. for 2 hours.
[…] In the second step, the serum-free culture medium was diluted 125 times, and the concentration of DMSO was 0.8%. Then 16.8 µL of the compound diluted in culture medium was transferred to a 100 µL cell plate, and the concentration of DMSO was 0.114%.
After adding the compound, the cell plates were incubated in a 37° C. 5% CO2 incubator for 1 hour.
In the first step, LPS was diluted with ultrapure water to a storage concentration of 1 mg/mL. In the second step, the storage concentration of LPS was diluted to 1 µg/mL in serum-free culture medium. In the third step, serum-free culture medium was 1666.666-fold diluted. Then 16.8 µL of LPS that has been diluted with culture medium was transferred to a 116.8 µL cell plate. At this time, the final concentration of DMSO was 0.1%. After adding LPS, the cell plate was put into a 37° C., 5% CO2 incubator and incubated for 18 hours.
• [0505] 1. The TNF-α antibody was diluted to 1× in the coating solution, and then 100 µL per well was added to a 96-well high-binding performance plate, and the plate was sealed with a membrane and placed at 4° C. for 18 hours. • [0506] 2. 2000 mL of wash buffer was prepared to 1x for later use.
• [0508] 3. After the plate was coated overnight, the coating solution was poured out and washed 3 times with 300 µL of washing buffer per well. • [0509] 4. After the plate was washed, 200 µL of sealing buffer was added to each well, and the plate was sealed with membrane. Incubated for one hour in a 25° C. incubator. • [0510] 5. The cell plates incubated for 18 hours were placed in a centrifuge for centrifugation, temperature: 25° C., speed: 2000 rpm, time: 10 min, ascending speed: 9, descending speed: 1. After centrifugation, 100 µL of cell supernatant from each well was transferred to a 3599 cell plate, and then placed in a 4° C. refrigerator for later use. • [0511] 6. The cell supernatant was diluted 40 times with sealing buffer and placed in a 4° C. refrigerator for later use, and the standard was also placed in a 4° C. refrigerator for later use. • [0512] 7. After the sealing was completed, the sealing solution was poured out and washed three times with 300 µL of washing buffer per well. • [0513] 8. The diluted cell supernatant samples and standards were added to the ELISA plate, and the plate was sealed with membrane. Then incubated for 2 hours in a 25° C. incubator. • [0514] 9. The liquid in the plate was poured out and washed 5 times with 300 µL of washing buffer per well. • [0515] 10. Antibodies were prepared and 100 µL was added to each well and the plate was sealed with sealing membrane. Then incubated for one hour in a 25° C. incubator. • [0516] 11. The liquid in the plate was poured out and washed 7 times with 300 µL of washing buffer per well. • [0517] 12. […]

CYP3A4 = molecular target: T1, CYP3A4 (Homo sapiens, UniProt P08684); assay: Human liver microsomal CYP repression experiment; type: in vitro ADME; details: for repression on CYP3A4 (in words): conclusion on Table 3; for IC50: mixed human liver microsomes, 5-in-1 probe substrate
T1 construct: incubation system containing human liver microsomes, probe substrates, and co-factors; tissue Corning Inc. or other suppliers; host or cells: mixed (pooled) human liver microsomes
Experimental: The purpose of the research project was to evaluate the repression of the test sample on human liver microsomal cytochrome P450 isoenzyme (CYP3A4) using a 5-in-1 probe substrate of CYP isoenzyme.
Mixed human liver microsomes (HLM) were purchased from Corning Inc. (Steuben, New York, USA) or other suppliers and stored at temperatures below -70° C. before use.
The diluted series concentration of the test sample was added to the incubation system containing human liver microsomes, probe substrates, and co-factors of the circulating system, and the control without the test sample but with solvent was used as the enzyme activity control (100%). The concentration of metabolites produced by the probe substrate in the sample was determined by liquid chromatography-tandem mass spectrometry (LC-MS/MS). Non-linear regression analysis of the mean percent activity of the test sample versus concentration was performed using SigmaPlot (V. 11). The IC50 values were calculated by a three- or four-parameter inverse logarithmic equation.

[2] = In vivo pharmacokinetic properties study in male SD rats; details: rat, plasma, iv 2 mg/kg
Experimental: Experimental purpose: The purpose of this study was to determine the pharmacokinetic parameters of compounds in male SD rats.
Experimental methods: In this project, two male SD rats were intravenously administered with a dose of 2 mg/kg and a concentration of 0.4 mg/mL. Plasma samples were collected at 0 h (before administration) and 0.0833, 0.25, 0.5, 1, 2, 4, 6, 8, 24 h after administration. Then the collected samples were analyzed by LC-MS/MS and the data were collected. The collected analytical data were used to calculate the relevant pharmacokinetic parameters using Phoenix WinNonlin 6.3 software.

[3] = test system: MMTV promoter luciferase reporter in HeLa cell line (GR transcription activation); assay: MMTV transcription activation activity, luciferase reporter gene screening system (MMTV_GR transcription activation experiment); type: cell-based; details: Homo sapiens
Description: The promoter of mouse mammary tumor virus (MMTV) contains specific binding sites for activating GRs (GREs). To determine the activity of the compounds, a reporter gene (luciferase) was inserted after the MMTV promoter, and this construct was expressed in a stable manner in the genome of the HeLa cell line. MMTV promoter was activated by the test compounds to induce the expression of luciferase, and its activity was detected by luminescence measurement.
• [0442] 1) All the culture media were carefully aspirated, the cell layer was rinsed gently with an appropriate amount of DPBS, and then aspirated. • [0443] 2) An appropriate amount of 0.05% Typsine EDTA was added and incubated in a CO2 incubator for 3-5 minutes to digest the cells. • [0444] 3) The cells were resuspended with an appropriate amount of cell culture medium. • [0445] 4) The amount of cells required was calculated, and the cell concentration was 4×10^3 cells/well. • [0446] 5) The cell suspension was diluted with appropriate cell culture medium. • [0447] 6) Cell suspension was dispensed into a disposable sterile loading slot. • [0448] 7) Inoculated 30 µL per well into a 384-well plate. • [0449] 8) The cell plate was placed in a 37° C. 5% CO2 incubator for 18-24 hours.
Compounds were diluted with DMSO to 1 mM, 0.25 mM, 0.0625 mM, 0.015625 mM, 0.0039 mM, 0.0009765 mM, 0.000244 mM, 0.000061 mM, 0.00001526 mM and 0.0000038125 mM, then diluted 25-fold with serum culture medium treated with activated carbon, and finally 4x concentration compound experimental plate was obtained, prepared before use.
The final DMSO experimental concentration was 0.1%.
MMTV_GR transcription activation activity experiment • [0458] 1) Inoculated cells: Fresh cells were inoculated into 384 white transparent bottom experimental plates at 4×10^3 cells/30 µL/well, and incubated at 37° C. 5% CO2 incubator for 24 hours. • [0459] 2) Compound preparation: The compound plate was prepared before the experiment, and the reference compound (dexamethasone) and the test compound of 4x concentration were prepared. Finally, the experimental plate of 4x concentration compound was obtained. • [0460] 3) Added compound: 10 µL of 4x compound was transferred with Bravo and added to cell plate. Incubated for 18 hours in a 37° C. 5% CO2 incubator. • [0461] 4) 30 µL of Bright-Glo fluorescent detection reagent was transferred to the cell plate. • [0462] 5) Centrifugal incubation for 2 minutes. • [0463] 6) The fluorescence value was measured with the Envision plate reader.
Positive control: 1000 nM dexamethasone (0.1% DMSO)
Negative control: 0.1% DMSO
Test compound: Maximum concentration of 1000 nM, 4-fold dilution, 10 wells in total, repeated.
Dexamethasone: Maximum concentration of 1000 nM, 4-fold dilution, 10 wells in total, repeated.
The graphing software GraphPad Prism5 was used to create the concentration curves of the tested compounds and calculate the IC50 values.

T1 sequence (P08684 whole entry): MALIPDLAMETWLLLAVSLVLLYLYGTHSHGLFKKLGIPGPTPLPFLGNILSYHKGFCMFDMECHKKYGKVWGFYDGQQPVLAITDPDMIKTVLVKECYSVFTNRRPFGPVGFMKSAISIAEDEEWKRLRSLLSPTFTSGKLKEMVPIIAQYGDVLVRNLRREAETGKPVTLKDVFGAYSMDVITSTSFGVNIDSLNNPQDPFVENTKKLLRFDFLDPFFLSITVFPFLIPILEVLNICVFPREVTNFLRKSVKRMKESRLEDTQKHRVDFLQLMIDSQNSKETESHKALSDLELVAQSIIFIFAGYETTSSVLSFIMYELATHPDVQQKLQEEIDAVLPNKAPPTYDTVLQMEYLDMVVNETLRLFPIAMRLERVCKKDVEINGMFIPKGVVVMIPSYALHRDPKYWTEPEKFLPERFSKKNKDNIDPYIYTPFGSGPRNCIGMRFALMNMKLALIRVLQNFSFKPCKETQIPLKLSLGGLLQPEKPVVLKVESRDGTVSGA

Compound	IC50 ([1]; absolute IC50, test Top concentration 500 nM, 8 concentration (**)) [nM]	Emax ([1]; test Top concentration 500 nM, 8 concentration (**)) [%]	repression on CYP3A4 (in words) (CYP3A4)	IC50 (CYP3A4) [nM]	clearance [2] [mL/min/kg]	half-life ([2]; read-out: T½ (converted)) [h]	Vd ([2]; read-out: Vdss) [L/kg]	IC50 ([1]; absolute IC50, test Top concentration 1000 nM, 8 concentration (*)) [nM]	Emax ([1]; test Top concentration 1000 nM, 8 concentration (*)) [%]	Emax ([3]; HeLa, maximum effect value, positive control 1000 nM dexamethasone, read-out: TA (MMTV transcription activation activity) Effect) [%]	EC50 ([3]; absolute EC50, HeLa MMTV-luciferase cells, 18 h, max concentration 1000 nM, read-out: TA (MMTV transcription activation activity) EC50) [nM]
CC(C)[C@H](NC(=O)C(C)(F)F)[C@H](Oc1ccc2c(cnn2-c2ccc(=O)n(C)c2)c1)c1ccccc1 [AZD9567, reference compound]	57.4	54.6	moderate repression on CYP3A4	2950	4.25	1.99	0.56	–	–	–	–
C[C@H](NC(=O)C(C)(F)F)[C@H](Oc1ccc2c(cnn2-c2ccc3nncn3c2)c1)c1ccccc1 [WX022]	–	–	–	–	–	–	–	2.42	90	101	1.59
C[C@H](NC(=O)C(C)(F)F)[C@H](Oc1ccc2c(cnn2-c2cn(C)nn2)c1)c1ccccc1 [WX053]	–	–	significantly improve the repression of CYP3A4	15700	–	–	–	–	–	–	–
